Where two headings read alike, the source gives them in different places.
What was measured:
bacterial inoculum [1] = assay type: cell-based; conditions: for Growth, nitrogen compound control: control without glutaraldehyde; for Growth, nitrogen compound control / Growth, Neutralization of Biocides with Nitrogen Compounds: n-C16; for Growth, Neutralization of Biocides with Nitrogen Compounds: with 10 ppm glutaraldehyde, two moles nitrogen compound per glutaraldehyde; for neutralizing 10 ppm of glutaraldehyde: two moles per glutaraldehyde
Description: The different nitrogen-containing compounds evaluated include the following: […]

bacteria = assay: Neutralization of biocides - H2O2 and NH4Cl; assay type: cell-based; conditions: for microbial growth: after 14 days, 1, 10 or 100 ppm glutaraldehyde mixed with five times molar excess of the agent; for neutralizing biocides (glutaraldehyde): five times molar excess over 1, 10 or 100 ppm glutaraldehyde
Procedure: In this experiment, minimal medium containing 1, 10 or 100 ppm of glutaraldehyde was mixed with a five times molar excess of H2O2 or NH4Cl. Hydrocarbonaceous product and bacteria were then added to the mixture.

bacterial inoculum [2] = assay: Evaluation of biocides: inhibition of growth on FT diesel and ALAD diesel; assay type: cell-based, alkane degrading organisms; note: key: −: No Growth; +: Growth (White Unless Otherwise Indicated)
Procedure: The ability of biocides to inhibit growth on a FT diesel and a low aromatics diesel fuel from Example 1 was investigated.
Test Conditions: 90 ml of growth media and 10 ml of either FT diesel or low sulfur (ALAD) diesel was added to 250 ml flasks. […] In addition to the 2 alkynes, glutaraldehyde (glutaric dialdehyde 50%), was tested. The following summarizes the test conditions:
100 ppm inhibitor (on a total test volume basis or 1000 ppm in diesel)
1% inhibitor (on a total test volume basis or 10% in diesel).
After inoculation, the flasks were place on a shaker-table (135 rpm) at room temperature and observed daily.

[3] = FT Diesel + 1 Wt % biocide, Day 0
[4] = FT Diesel + 1 Wt % biocide, Day 1
[5] = FT Diesel + 1 Wt % biocide, Day 5
[6] = FT Diesel + 1 Wt % biocide, Day 7
[7] = FT Diesel + 1 Wt % biocide, Day 8
[8] = FT Diesel + 1 Wt % biocide, Day 19
[9] = FT Diesel + 100 ppm biocide, Day 0
[10] = FT Diesel + 100 ppm biocide, Day 1
[11] = FT Diesel + 100 ppm biocide, Day 5
[12] = FT Diesel + 100 ppm biocide, Day 7
[13] = FT Diesel + 100 ppm biocide, Day 8
[14] = FT Diesel + 100 ppm biocide, Day 19
[15] = LA Diesel + 1 Wt % biocide, Day 0
[16] = LA Diesel + 1 Wt % biocide, Day 1
[17] = LA Diesel + 1 Wt % biocide, Day 5
[18] = LA Diesel + 1 Wt % biocide, Day 7
[19] = LA Diesel + 1 Wt % biocide, Day 8
[20] = LA Diesel + 1 Wt % biocide, Day 19
[21] = LA Diesel + 100 ppm biocide, Day 0
[22] = LA Diesel + 100 ppm biocide, Day 1
[23] = LA Diesel + 100 ppm biocide, Day 5
[24] = LA Diesel + 100 ppm biocide, Day 7
[25] = LA Diesel + 100 ppm biocide, Day 8
[26] = LA Diesel + 100 ppm biocide, Day 19

Nc1ccccc1 [aniline, Aniline]
excessively toxic: toxicity of the nitrogen-containing compound itself (microbial growth) (bacterial inoculum [1])
−: Growth, nitrogen compound control (bacterial inoculum [1]; Time 0 days) | Growth, nitrogen compound control (bacterial inoculum [1]; Time 1 days) | Growth, nitrogen compound control (bacterial inoculum [1]; Time 2 days) | Growth, nitrogen compound control (bacterial inoculum [1]; Time 6 days) | Growth, nitrogen compound control (bacterial inoculum [1]; Time 7 days) | Growth, nitrogen compound control (bacterial inoculum [1]; Time 9 days) | Growth, nitrogen compound control (bacterial inoculum [1]; Time 13 days) | Growth, nitrogen compound control (bacterial inoculum [1]; Time 20 days) | Growth, Neutralization of Biocides with Nitrogen Compounds (bacterial inoculum [1]; Time 0 days) | Growth, Neutralization of Biocides with Nitrogen Compounds (bacterial inoculum [1]; Time 1 days) | Growth, Neutralization of Biocides with Nitrogen Compounds (bacterial inoculum [1]; Time 2 days) | Growth, Neutralization of Biocides with Nitrogen Compounds (bacterial inoculum [1]; Time 6 days) | Growth, Neutralization of Biocides with Nitrogen Compounds (bacterial inoculum [1]; Time 7 days) | Growth, Neutralization of Biocides with Nitrogen Compounds (bacterial inoculum [1]; Time 9 days) | Growth, Neutralization of Biocides with Nitrogen Compounds (bacterial inoculum [1]; Time 13 days) | Growth, Neutralization of Biocides with Nitrogen Compounds (bacterial inoculum [1]; Time 20 days)

OO [H2O2]
no growth: microbial growth (bacteria)
not effective: neutralizing biocides (glutaraldehyde) (bacteria)

Cl.N [NH4Cl]
not effective: neutralizing biocides (glutaraldehyde) (bacteria)
no growth: microbial growth (bacteria)

CCNCC [diethylamine, Diethylamine]
−: Growth, nitrogen compound control (bacterial inoculum [1]; Time 0 days) | Growth, nitrogen compound control (bacterial inoculum [1]; Time 1 days) | Growth, nitrogen compound control (bacterial inoculum [1]; Time 2 days) | Growth, Neutralization of Biocides with Nitrogen Compounds (bacterial inoculum [1]; Time 0 days) | Growth, Neutralization of Biocides with Nitrogen Compounds (bacterial inoculum [1]; Time 1 days) | Growth, Neutralization of Biocides with Nitrogen Compounds (bacterial inoculum [1]; Time 2 days)
+: Growth, nitrogen compound control (bacterial inoculum [1]; Time 6 days) | Growth, nitrogen compound control (bacterial inoculum [1]; Time 7 days) | Growth, nitrogen compound control (bacterial inoculum [1]; Time 9 days) | Growth, nitrogen compound control (bacterial inoculum [1]; Time 13 days) | Growth, nitrogen compound control (bacterial inoculum [1]; Time 20 days) | Growth, Neutralization of Biocides with Nitrogen Compounds (bacterial inoculum [1]; Time 6 days) | Growth, Neutralization of Biocides with Nitrogen Compounds (bacterial inoculum [1]; Time 7 days) | Growth, Neutralization of Biocides with Nitrogen Compounds (bacterial inoculum [1]; Time 9 days) | Growth, Neutralization of Biocides with Nitrogen Compounds (bacterial inoculum [1]; Time 13 days) | Growth, Neutralization of Biocides with Nitrogen Compounds (bacterial inoculum [1]; Time 20 days)
effective: neutralizing 10 ppm of glutaraldehyde (bacterial inoculum [1])

C#CCCCC [H, 1-hexyne]
+: Growth, Test Results on Fischer-Tropsch Diesel Fuel (bacterial inoculum [2]; [11]) | Growth, Test Results on Fischer-Tropsch Diesel Fuel (bacterial inoculum [2]; [12]) | Growth, Test Results on Fischer-Tropsch Diesel Fuel (bacterial inoculum [2]; [13]) | Growth, Test Results on Fischer-Tropsch Diesel Fuel (bacterial inoculum [2]; [14]) | Growth, Test Results on ALAD Diesel Fuel (bacterial inoculum [2]; [23]) | Growth, Test Results on ALAD Diesel Fuel (bacterial inoculum [2]; [24]) | Growth, Test Results on ALAD Diesel Fuel (bacterial inoculum [2]; [25]) | Growth, Test Results on ALAD Diesel Fuel (bacterial inoculum [2]; [26])
−: Growth, Test Results on Fischer-Tropsch Diesel Fuel (bacterial inoculum [2]; [3]) | Growth, Test Results on Fischer-Tropsch Diesel Fuel (bacterial inoculum [2]; [4]) | Growth, Test Results on Fischer-Tropsch Diesel Fuel (bacterial inoculum [2]; [5]) | Growth, Test Results on Fischer-Tropsch Diesel Fuel (bacterial inoculum [2]; [6]) | Growth, Test Results on Fischer-Tropsch Diesel Fuel (bacterial inoculum [2]; [7]) | Growth, Test Results on Fischer-Tropsch Diesel Fuel (bacterial inoculum [2]; [8]) | Growth, Test Results on Fischer-Tropsch Diesel Fuel (bacterial inoculum [2]; [9]) | Growth, Test Results on Fischer-Tropsch Diesel Fuel (bacterial inoculum [2]; [10]) | Growth, Test Results on ALAD Diesel Fuel (bacterial inoculum [2]; [15]) | Growth, Test Results on ALAD Diesel Fuel (bacterial inoculum [2]; [16]) | Growth, Test Results on ALAD Diesel Fuel (bacterial inoculum [2]; [17]) | Growth, Test Results on ALAD Diesel Fuel (bacterial inoculum [2]; [18]) | Growth, Test Results on ALAD Diesel Fuel (bacterial inoculum [2]; [19]) | Growth, Test Results on ALAD Diesel Fuel (bacterial inoculum [2]; [20]) | Growth, Test Results on ALAD Diesel Fuel (bacterial inoculum [2]; [21]) | Growth, Test Results on ALAD Diesel Fuel (bacterial inoculum [2]; [22])

C#CCO [P, Propargyl alcohol]
+ Yellow: Growth, Test Results on ALAD Diesel Fuel (bacterial inoculum [2]; [23]) | Growth, Test Results on ALAD Diesel Fuel (bacterial inoculum [2]; [24]) | Growth, Test Results on ALAD Diesel Fuel (bacterial inoculum [2]; [25]) | Growth, Test Results on ALAD Diesel Fuel (bacterial inoculum [2]; [26])
−: Growth, Test Results on Fischer-Tropsch Diesel Fuel (bacterial inoculum [2]; [3]) | Growth, Test Results on Fischer-Tropsch Diesel Fuel (bacterial inoculum [2]; [4]) | Growth, Test Results on Fischer-Tropsch Diesel Fuel (bacterial inoculum [2]; [5]) | Growth, Test Results on Fischer-Tropsch Diesel Fuel (bacterial inoculum [2]; [6]) | Growth, Test Results on Fischer-Tropsch Diesel Fuel (bacterial inoculum [2]; [7]) | Growth, Test Results on Fischer-Tropsch Diesel Fuel (bacterial inoculum [2]; [8]) | Growth, Test Results on Fischer-Tropsch Diesel Fuel (bacterial inoculum [2]; [9]) | Growth, Test Results on Fischer-Tropsch Diesel Fuel (bacterial inoculum [2]; [10]) | Growth, Test Results on Fischer-Tropsch Diesel Fuel (bacterial inoculum [2]; [11]) | Growth, Test Results on ALAD Diesel Fuel (bacterial inoculum [2]; [15]) | Growth, Test Results on ALAD Diesel Fuel (bacterial inoculum [2]; [16]) | Growth, Test Results on ALAD Diesel Fuel (bacterial inoculum [2]; [17]) | Growth, Test Results on ALAD Diesel Fuel (bacterial inoculum [2]; [18]) | Growth, Test Results on ALAD Diesel Fuel (bacterial inoculum [2]; [19]) | Growth, Test Results on ALAD Diesel Fuel (bacterial inoculum [2]; [20]) | Growth, Test Results on ALAD Diesel Fuel (bacterial inoculum [2]; [21]) | Growth, Test Results on ALAD Diesel Fuel (bacterial inoculum [2]; [22])
+: Growth, Test Results on Fischer-Tropsch Diesel Fuel (bacterial inoculum [2]; [12]) | Growth, Test Results on Fischer-Tropsch Diesel Fuel (bacterial inoculum [2]; [13]) | Growth, Test Results on Fischer-Tropsch Diesel Fuel (bacterial inoculum [2]; [14])

OCCNCCO [DEA, Diethanolamine]
+: Growth, nitrogen compound control (bacterial inoculum [1]; Time 6 days) | Growth, nitrogen compound control (bacterial inoculum [1]; Time 7 days) | Growth, nitrogen compound control (bacterial inoculum [1]; Time 9 days) | Growth, nitrogen compound control (bacterial inoculum [1]; Time 13 days) | Growth, Neutralization of Biocides with Nitrogen Compounds (bacterial inoculum [1]; Time 1 days) | Growth, Neutralization of Biocides with Nitrogen Compounds (bacterial inoculum [1]; Time 2 days) | Growth, Neutralization of Biocides with Nitrogen Compounds (bacterial inoculum [1]; Time 6 days) | Growth, Neutralization of Biocides with Nitrogen Compounds (bacterial inoculum [1]; Time 7 days) | Growth, Neutralization of Biocides with Nitrogen Compounds (bacterial inoculum [1]; Time 9 days) | Growth, Neutralization of Biocides with Nitrogen Compounds (bacterial inoculum [1]; Time 13 days) | Growth, Neutralization of Biocides with Nitrogen Compounds (bacterial inoculum [1]; Time 20 days)
effective: neutralizing 10 ppm of glutaraldehyde (bacterial inoculum [1])
−: Growth, nitrogen compound control (bacterial inoculum [1]; Time 0 days) | Growth, nitrogen compound control (bacterial inoculum [1]; Time 1 days) | Growth, nitrogen compound control (bacterial inoculum [1]; Time 2 days) | Growth, nitrogen compound control (bacterial inoculum [1]; Time 20 days) | Growth, Neutralization of Biocides with Nitrogen Compounds (bacterial inoculum [1]; Time 0 days)
